In patent US10259824B2, “Complement C3d-binding compounds” (The Regents of the University of California, priority 2015, dated 2019):

Columns and labels:
[1] = target: T1, C3d (Homo sapiens, UniProt P01024); assay: Microscale thermophoresis direct binding; conditions: 10 nM NT647-labeled C3d, MST buffer with 5% DMSO
T1 construct: Further cleavage events yield C3d (the terminal cleavage product of C3); purchased Complement Technology, Inc
Protocol: Microscale thermophoresis. Direct binding of molecules was assayed using a Monolith NT.115 (NanoTemper Technologies GmbH). Purified C3d (Complement Technology, Inc.) was labeled with NT647 dye using the kit from NanoTemper Technologies, and dissolved to 10 nM in MST buffer (50 mM Tris-HCl, 150 mM NaCl, 10 mM MgCl2, 0.05% Tween 20) containing 5% DMSO. A dilution series of each molecule was prepared in MST buffer containing 5% DMSO, and preincubated with 10 nM NT647-labeled C3d for 10 minutes at room temperature in the dark. Samples were loaded into hydrophilic capillary tubes, and measurements were obtained. For each molecule, reported KD values and binding curves represent results from three independent experiments.
Experimental evaluation of C3d binding. In order to validate the hits from vHTS, binding of 49 selected compounds were measured using microscale thermophoresis. All molecules were tested in a concentration-dependent manner; starting at a concentration of 200 μM (most molecules were poorly soluble in aqueous solution above this concentration). Ten molecules were identified that bound to C3d, with binding affinities (KD) ranging between 25-500 μM. The molecular structures and binding curves for top molecules are shown in FIG. 6, and other binding compounds are shown in FIG. 9.
Microscale Thermophoresis: Direct binding of a small number of selected molecules was tested using microscale thermophoresis. […] We used Efb, a protein secreted from Staphylococcus aureus that binds to C3d, as a positive control for binding (KD=3 nM) (see FIG. 11).

[2] = Absorption and fluorescence spectroscopy / fluorescence quantum yield; assay type: physicochemical; conditions: for Emission Peak / Excitation Peak / Quantum Yield: acetonitrile
Protocol: Absorption and fluorescence spectroscopy. Stock solutions of C3d-binding compounds (in DMSO) were diluted in spectroscopic grade acetonitrile (Fisher Scientific). The concentration of each sample was adjusted such that the absorption at the excitation wavelength was below 0.2, after correcting with blank acetonitrile solutions containing the same concentration of DMSO as the measured samples. The UV/visible absorption spectra (260-700 nm) were recorded on a JASCO V-670 spectrophotometer (Tokyo, Japan), using quartz cuvettes (1.0 cm path length, 3.0 ml total volume). The emission spectra were collected with a FluoroLog-3 spectrofluorometer (Horiba-Jobin-Yvon, Edison, N.J., USA). All samples were purged with argon prior to the measurements and all measurements were performed at room temperature.
Fluorescence quantum yield measurements. Fluorescence quantum yield values for the small molecules were calculated using one or more standard quantum yield fluorophores. Values were calculated according to Eq. 1.
where R and S subscripts denote reference compound and sample, respectively, Φfl is quantum yield, In is the total integrated fluorescence spectrum intensity obtained from integration of the emission spectra, An is sample absorbance at the excitation wavelength, and nn is the refractive index of the solvent. Reference compounds used for calculation included naphthalene (ΦR=0.23 for EtOH), anthracene (ΦR=0.27 for EtOH), and coumarin 1 (ΦR=0.73 for EtOH). Standard molecule quantum yield measurements were performed in acetonitrile, and solvent-dependent measurements were performed in spectroscopic grade methanol, ethanol, 1-propanol, 1-butanol, ethylene glycol, glycerol, and phosphate buffered saline.
To test the fluorescence dependence on the media viscosity, a protic media was used, i.e., an aqueous buffer and six alcohols with widely varying viscosities.

[3] = target: T1, C3d; assay: Fluorescence of molecules in the presence of C3d; conditions: subsaturating concentrations of C3d
Protocol: The fluorescence properties of topperforming molecules in the presence of C3d were also evaluated. Often, when small molecule fluorophores bind to their targets, fluorescence may be quenched, an undesirable property for potential diagnostic molecules. […] Remarkably, Mol4 underwent drastic fluorescence enhancement in the presence of C3d, with up to 5-fold higher fluorescence at subsaturating concentrations of C3d (FIG. 14).

[4] = for EtOH; standard fluorophore; cited from earlier work
[5] = target: T2, C3d-Ecb interaction (Homo sapiens, UniProt P01024); assay: Competitive binding ELISA, C3d-Ecb; design: species or system Staphylococcus aureus; conditions: plates coated with Ecb
T2 construct: Further cleavage events yield C3d (the terminal cleavage product of C3)
Protocol: (§1) Competitive binding ELISA: 50 molecules selected from virtual screening were tested for competitive binding against C3d and its interactions with endogenous protein CR2 and bacterial protein Ecb (homolog to Efb) from Staphylococcus aureus. ELISA plates were coated with CR2 or Ecb for 1 hour at 37° C. Plates were washed and blocked, then incubated with serial dilutions of C3d, with and without test molecules. Plates were incubated with a mouse monoclonal antibody against C3d, followed by a horseradish peroxidase-labeled anti-mouse IgG antibody. The amount of labeled antibody (and in turn, C3d) bound was detected via reaction with a substrate solution, followed by spectrophotometric measurement.

[6] = target: T3, C3d-CR2 interaction (Homo sapiens, UniProt P01024); assay: Competitive binding ELISA, C3d-CR2; conditions: plates coated with CR2
T3 construct: Further cleavage events yield C3d (the terminal cleavage product of C3)
Protocol: as §1

[7] = aqueous buffer and six alcohols

T3 sequence (P01024 1002-1303 limits assumed): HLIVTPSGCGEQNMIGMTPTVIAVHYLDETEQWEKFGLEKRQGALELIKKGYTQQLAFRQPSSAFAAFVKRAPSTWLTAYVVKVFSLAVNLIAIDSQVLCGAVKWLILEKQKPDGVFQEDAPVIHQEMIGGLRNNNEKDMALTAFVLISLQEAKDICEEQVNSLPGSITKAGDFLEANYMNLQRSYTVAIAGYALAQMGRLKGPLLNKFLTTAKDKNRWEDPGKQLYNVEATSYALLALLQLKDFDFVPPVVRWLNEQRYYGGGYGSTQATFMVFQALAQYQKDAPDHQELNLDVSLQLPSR
T2 sequence (P01024 1002-1303 limits assumed): as above
T1 sequence (P01024 1002-1303 limits assumed): as above

Kd [1] [µM] | Emission Peak [2] [nm] | Excitation Peak [2] | Quantum Yield [2] | SMILES | also measured
132 ± 28 | 425 | 320 nm | 0.017 | O=C(Cc1cccc(F)c1)Nc1ccc(N2CCC(NCc3ccc4ncccc4c3)CC2)cc1 [Mol 36] | 
 |  |  |  | O=C(NC1CCCc2ccccc21)c1ccc(CN2CCN(CC=Cc3ccccc3)CC2)[nH]c1=O (stereo not shown) [Mol B42] | dependence of Φfl on media viscosity [2, 7]: does not manifest viscosity dependence; dependence of Φfl on solvent polarity [2, 7]: about an order of magnitude increase in Φfl
 |  |  |  | O=C(Nc1cccc(-c2cc3ccccc3[nH]2)c1)C1CCN(C(=O)C2CC23CCC3)CC1 (stereo not shown) [Mol B4] | fluorescence enhancement in the presence of C3d [3]: up to 5 fold
 |  |  |  | CCN(CC)c1ccc2c(C)cc(=O)oc2c1 [coumarin 1] | reference quantum yield ΦR [4]: 0.73
77 |  |  |  | O=C(Nc1ccc(C(=O)N2CCN(Cc3nc4sc5c(c4c(=O)[nH]3)CCCC5)CC2)s1)C1CC1 [Mol 50] | 
 |  |  |  | Cc1ccc(NC(=O)Cn2nnc(C(=O)Nc3ccc(C)cc3C)c2N)c(C)c1 [Mol B47] | inhibition of C3d-Ecb interaction [5]: inhibits; inhibition of C3d-CR2 interaction [6]: only inhibits the C3d-Ecb interaction
 |  |  |  | c1ccc2ccccc2c1 [naphthalene] | reference quantum yield ΦR [4]: 0.23
45 ± 15 | 390 | 335 nm | 0.011 | O=C(NC1CCCc2ccccc21)c1ccc(CN2CCN(CC=Cc3ccccc3)CC2)[nH]c1=O (stereo not shown) [Mol 42] | 
 |  |  |  | c1ccc2cc3ccccc3cc2c1 [anthracene] | reference quantum yield ΦR [4]: 0.27
45 ± 13 | 405 | 310 nm | 0.001 | O=C(Nc1nc2ccccc2[nH]1)c1ccc(CNS(=O)(=O)c2ccc(F)c(F)c2F)cc1 [Mol 11] | 
29 ± 8 | 380 | 315 nm | 0.560 | O=C(Nc1cccc(-c2cc3ccccc3[nH]2)c1)C1CCN(C(=O)C2CC23CCC3)CC1 (stereo not shown) [Mol 4] | 
27 ± 5 | 385 | 310 nm | 0.002 | Cc1c(-c2ccc(F)cc2)[nH]c2ccc(CNC(=O)c3cc(=O)[nH]c(=O)[nH]3)cc12 [Mol 16] | 
 |  |  |  | C[C@@H](Oc1ccc2[nH]c3ccccc3c(=O)c2c1)C(=O)NC(=O)NC12CC3CC(CC(C3)C1)C2 [Mol B17] | Quantum Yield ([2]; listed as Mol17): close to unity
 |  |  |  | Cc1c(-c2ccc(F)cc2)[nH]c2ccc(CNC(=O)c3cc(=O)[nH]c(=O)[nH]3)cc12 [Mol B16] | dependence of Φfl on solvent polarity [2, 7]: does not exhibit any dependence on solvent polarity; emission quantum yield at high media viscosity ([2]; media viscosity about 1,000 cP, protic media): ~0.015; emission quantum yield at low media viscosity ([2]; media viscosity about <1 cP, protic media): about 0.002
 |  |  |  | CC1Sc2ccc(C(=O)NNC(=O)c3cc(-c4ccco4)nc4ccccc34)cc2NC1=O (stereo not shown) [Mol B22] | inhibition of C3d-Ecb interaction [5]: inhibit; inhibition of C3d-CR2 interaction [6]: inhibit
116 ± 41 | 500 | 390/405 | 0.984 | C[C@@H](Oc1ccc2[nH]c3ccccc3c(=O)c2c1)C(=O)NC(=O)NC12CC3CC(CC(C3)C1)C2 [Mol 17] | 

SMILES | Kd [1] [µM] | Emission Peak [2] [nm] | Excitation Peak [2] | Quantum Yield [2] | also measured
Cc1ccc(NC(=O)CSc2nnc3ccc(C(=O)Nc4cccc(F)c4)cn23)c(C)c1 [Mol 35] | 417 ± 171 | 460 | 275 nm | 0.001 | inhibition of C3d-Ecb interaction [5]: inhibit; inhibition of C3d-CR2 interaction [6]: inhibit
CC1Sc2ccc(C(=O)NNC(=O)c3cc(-c4ccco4)nc4ccccc34)cc2NC1=O (stereo not shown) [Mol 22] | 183 ± 81 | 455 | 355 nm | 0.044 | 
